Assay results taken from patent publication US20220218667A1, “DUAL INHIBITORS OF SOLUBLE EPOXIDE HYDROLASE AND METHODS OF USE THEREOF” (OROX Biosciences, Inc., priority 2019, published 2022).
“Also recorded” adds a separate entry of the source.

Legend:
COX-2 = biological target: T1, COX-2 (Homo sapiens, UniProt P35354); experiment: COX-2 inhibition IC50, COX Fluorescent Inhibitor Screening Assay; assay type: biochemical
T1 construct: purchased Cayman Chemical 700100
T1 sequence (P35354 18-604): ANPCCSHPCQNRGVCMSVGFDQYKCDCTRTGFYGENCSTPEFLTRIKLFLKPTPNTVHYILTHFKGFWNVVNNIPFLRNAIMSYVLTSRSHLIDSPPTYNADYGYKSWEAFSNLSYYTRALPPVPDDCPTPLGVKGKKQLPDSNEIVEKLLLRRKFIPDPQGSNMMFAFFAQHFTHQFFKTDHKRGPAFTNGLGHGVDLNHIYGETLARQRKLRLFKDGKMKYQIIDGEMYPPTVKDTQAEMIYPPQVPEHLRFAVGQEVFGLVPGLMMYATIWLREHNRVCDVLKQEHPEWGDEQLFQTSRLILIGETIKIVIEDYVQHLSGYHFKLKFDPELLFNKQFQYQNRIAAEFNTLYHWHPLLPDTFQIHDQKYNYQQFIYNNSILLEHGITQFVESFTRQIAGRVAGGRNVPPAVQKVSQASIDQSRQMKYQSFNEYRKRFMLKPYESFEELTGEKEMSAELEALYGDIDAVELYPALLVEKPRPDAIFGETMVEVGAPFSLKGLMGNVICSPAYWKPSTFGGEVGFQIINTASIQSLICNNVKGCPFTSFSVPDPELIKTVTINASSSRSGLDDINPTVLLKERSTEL
Description: A COX Fluorescent Inhibitor Screening Assay Kit (catalog number 700100, Cayman Chemical, Ann Arbor, Mich.) is useful for assaying the ability of the compounds provided herein to inhibit ovine COX-1 and human recombinant COX-2 (% inhibition at 100 μM and IC50 values (M), respectively). Stock solutions of test compounds are dissolved in a minimum volume of DMSO. 10 μl of various concentrations of the test compound solutions, e.g., [I]final between 0.01 and 100 μM, are added to a series of supplied reaction buffer solutions (150 μl, 100 mM Tris-HCl, pH 8.0) with either COX-1 or COX-2 (10 μl) enzyme in the presence of Heme (10 μl) and a fluorometric substrate (10 μl). The reactions are initiated by quickly adding 10 μl of arachidonic acid solution and then incubating the system for two minutes at room temperature. Fluorescence of resorufin, which is produced by the reaction between PGG2 and fluorometric substrate, ADHP (10-acetyl-3,7-dihydroxyphenoxazine), is analyzed with an excitation wavelength of 535 nm and an emission wavelength of 590 nm. The intensity of this fluorescence is proportional to the amount of resorufin, which is proportional to the amount of PGG2 present in the well during the incubation. Percent inhibition is calculated by comparison from the 100% initial activity sample value (no inhibitor).

[1] = tested on: C57B/L6 mice exposed to bleomycin; experiment: Example 1: prophylactic treatment of mice exposed to bleomycin (IPF model); assay type: in vivo, mouse; details: OX1, OX3, Nintedanib 30 mg/kg QD, Pirfenidone 100 mg/kg BID
Description: 4-(5-phenyl-3-{3-[3-(4-trifluoromethyl-phenyl)-ureido]-propyl}-pyrazol-1-yl)-benzenesulfonamide (PTUPB) [termed OX1] was compared to Pirfenidone, Nintedanib, and GSK225629415 [termed OX3] for treatment of IPF using an established model for IPF treating, which is prophylactic treatment of mice exposed to the chemotherapeutic agent bleomycin. […] Pirfenidone and Nintedanib are standard of care for the treatment of idiopathic pulmonary fibrosis and served as reference compounds in the experiment.
C57B/L6 mice were used in the experiments. When used, Bleomycin was administered intra-oropharyngeally, 1.5 U/kg, QD per established protocol. The test articles were dosed via oral gavage in 200 μL/day vehicle. The doses and formulations of test articles were selected based on the literature describing the lowest doses capable of eliciting pharmacological action.
Animals were dosed with the test articles (or vehicle) starting at day −1 to day 20. On day 1, daily doses of Bleomycin commenced in all but group 1 (negative control) which received the vehicle. On day 21, all animals were weighed and sacrificed. After lungs and bronco-alveolar lavage fluid (BALF) were harvested, they were prepared according to standard procedures for further analysis and histology. All animals were assessed twice a week for body weight and overall appearance. Efficacy endpoints measured in this study included lung weight, total leukocytes, and histology as determined by Mason's Trichrome stain and scored using a modified Ashcroft score.
The following parameters were measured in bronchoalveolar fluid (BALF): 1) soluble collagen and 2) differential leukocyte counts for different leukocyte populations.
After weighing and removal of BALF from the lungs, they were inflated and fixed using 10% neutral buffered formalin for histopathology analysis. Fifty-four formalin-fixed lung samples from mice were submitted to HistoTox Labs and were processed routinely. Two slides from each block were sectioned and stained with hematoxylin and eosin (H&E) or Masson's trichrome. Glass slides were evaluated with light microscopy by a board-certified veterinary pathologist. Lung sections were scored according to the modified Ashcroft scale.

human sEH = biological target: T2, human sEH (Homo sapiens, UniProt P34913); experiment: sEH inhibition IC50, fluorescent-based assay with purified recombinant sEH; assay type: biochemical; details: in vitro, relative to OX1
T2 sequence (P34913 1-555): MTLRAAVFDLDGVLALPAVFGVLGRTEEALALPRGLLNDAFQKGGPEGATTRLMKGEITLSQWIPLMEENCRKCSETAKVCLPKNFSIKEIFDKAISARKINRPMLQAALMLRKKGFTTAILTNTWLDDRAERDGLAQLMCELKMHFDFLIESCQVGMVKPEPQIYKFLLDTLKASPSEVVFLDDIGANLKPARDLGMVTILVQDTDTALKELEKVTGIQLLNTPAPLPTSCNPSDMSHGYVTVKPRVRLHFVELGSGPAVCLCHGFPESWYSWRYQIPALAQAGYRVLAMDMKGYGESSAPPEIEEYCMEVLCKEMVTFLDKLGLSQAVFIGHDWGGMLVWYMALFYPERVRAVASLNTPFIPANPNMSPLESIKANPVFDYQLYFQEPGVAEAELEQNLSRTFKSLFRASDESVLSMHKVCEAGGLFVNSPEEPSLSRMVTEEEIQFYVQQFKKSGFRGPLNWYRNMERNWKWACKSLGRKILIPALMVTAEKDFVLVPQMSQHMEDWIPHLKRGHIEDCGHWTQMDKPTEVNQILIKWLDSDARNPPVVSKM
Description: sEH inhibition IC50 values for the compounds presented herein can be assayed by a recombinant affinity assay using purified sEHs, from human, mouse or rat, in a fluorescent-based assay. In such an assay, enzymes, e.g., ˜1 nM human sEH, are incubated with a potential inhibitors for 5 min in 25 mM Bis-Tris/HCl buffer (200 μL; pH 7.0) at 30° C. before a substrate, e.g., cyano(2-methoxynaphthalen-6-yl)methyl trans-(3-phenyl-oxyran-2-yl)methyl carbonate, (CMNPC) is added ([S]final=5 μM).

[2] = day 21, compared to vehicle (Group 2)

Structure (SMILES): CNc1nc(C)nc(N[C@H]2CCC[C@@H](C(=O)NCc3ccc(C#N)cc3C(F)(F)F)C2)n1 [OX3]
- IC50 (COX-2): > 1000 nM
- times less potent on COX-2 than OX1 (COX-2; in vitro, relative to OX1): at least 10 times
- body weight course over 21 days ([1]; bleomycin mice, oral gavage day -1 to 20): lost the least weight; also recorded: sustained weight loss
- neutrophil migration into BALF ([1]; day 21, oral): somewhat effective
- number of lymphocytes in BALF ([1]; day 21, oral): trend increasingly lower
- number of macrophages in BALF ([1]; day 21, oral): more macrophages
- total cell (leukocyte) count in BALF ([1]; day 21, oral): did not demonstrate the same level of reduction
- increased collagen (fibrosis) score, trichrome [1, 2]: slightly lower
- mean Ashcroft score (lung histology) [1, 2]: slightly lower
- mean score for mixed peribronchiolar/perivascular inflammation [1, 2]: lower
- fold more potent against sEH than OX1 (human sEH): roughly 75 fold
